Measurements taken from patent US6447767B1, “Non-myeloablative tolerogenic treatment” (Hadasit Medical Research Services and Development Ltd., priority 1997, dated 2002).
Values joined by “and” are separate entries in the source; they are usually repeats but may differ in a detail not shown here. Identical values can stand only once. Like-named read-outs stand apart in the source and are kept apart here.

How the values were obtained:
[1] = GVHD induction by B6 bone marrow in lethally irradiated SJL/J mice; assay type: in vivo; conditions: B6 BM 30 min with 100 μg/ml, 25×10^6 per mouse, SJL/J 1,100 cGy TBI (FIG. 20)
Procedure: (§1) Recipients were monitored for survival and clinical signs of GVHD such as ruffled fur, diarrhea, and measurable weight loss. […], samples of liver and lung sections were obtained form each mouse to test for histological evidence of GVHD. Histological preparations were analyzed by an independent pathologist on a double blind basis.
(§2) In parallel murine experiments, culture of B6 bone marrow for 30 minutes with ASTA-Z (100 μg/ml) prior to injection (25×10^6 per mouse) into lethally irradiated (1,100 cGy of TBI) SJL/J mice reduced the capacity of the bone marrow cells to induce GVHD (FIG. 20). Similarly, culture of B6 spleen cells for 30 minutes with ASTA-Z (100 μg/ml) prior to injection (25×10^6 per mouse) into sublethally irradiated BALB/c mice (600 cGy) reduced the capacity of the spleen cells to induce GVHD (FIG. 21).

[2] = tested on: murine P815 tumor target cells; conditions: BALB/c SP or BM cells, ASTA-Z then rIL-2 6,000 IU/ml 4 days (FIG. 19)
Procedure: (§3) Human peripheral blood mononuclear cell (PBMC) and murine spleen or bone marrow populations were tested for their ability to lyse NK-sensitive target cells (human K562 and murine YAC-1 cells) and NK-resistant, activated NK-sensitive target cells (human Daudi and murine P815 cells) using standard ^51Cr-release assays. Briefly, ^51 Cr-labeled target cells were incubated at 37° C. with PBMC effector cells at various target cell to effector cell ratios for 4 hours. At the end of the incubation, the cells were pelleted by centrifugation and equal aliquots of supernatant were removed from each assay culture well and counted for radioactivity. Percent lysis was calculated by the following formula: [formula]
(§4) They were then harvested and tested for cytolytic activity in standard ^51Cr-release assays. While YAC-1 cells are sensitive to lysis by both NK and activated NK cells, P815 cells are not sensitive to lysis by NK cells but are sensitive to activated NK cells. […] While K562 cells are sensitive to lysis by both NK and activated NK cells, Daudi cells are not sensitive to NK cells but are sensitive to activated NK cells.

[3] = tested on: murine YAC-1 tumor target cells; conditions: BALB/c SP or BM cells, ASTA-Z then rIL-2 6,000 IU/ml 4 days (FIG. 18)
Procedure: as §3, §4

[4] = tested on: BALB/c mouse spleen cells; experiment: Mitogen-induced T cell proliferation ([3H]-thymidine incorporation); assay type: cell-based
Procedure: Mitogen-induced T cell proliferative responses were measured by culturing spleen cells in the presence of the T cell mitogens concanavalin A (ConA, 10 μg/ml) or phytohemagglutinin (PHA, 1 μg/ml) for three days. [^3H]-thymidine was added to the cultures for the last 6 hours of culture and T cell proliferation was measured in terms of counts per minute (cpm) of [^3H]-thymidine incorporated into the DNA of the cells using cell harvesting and radioactivity techniques known to those in the art.
BALB/c spleen cells were cultured for 30 minutes at 37° C. in tissue culture medium containing 100 μg/ml of ASTA-Z and then tested for in vitro T cell responses.

[5] = tested on: K562 target cells; experiment: 51Cr-release lysis by killer cells generated from human PBMC with rIL-2; assay type: cell-based
Procedure: (§5) Percent lysis was calculated by the following formula: [formula]

[6] = tested on: Daudi target cells; experiment: as above; assay type: cell-based
Procedure: as §5

[7] = GVHD induction by B6 spleen cells in sublethally irradiated BALB/c mice; assay type: in vivo; conditions: B6 spleen cells 30 min with 100 μg/ml, 25×10^6 per mouse, BALB/c 600 cGy (FIG. 21)
Procedure: as §1, §2

[8] = tested on: metastatic solid tumors / lymphoma; experiment: AlloCT with rIL-2 activated mismatched lymphocytes plus tumor-specific antibodies (case reports); assay type: in vivo, human; conditions: single patients; antibody given with rIL-2 activated haploidentically mismatched lymphocytes
From the text: Donor-derived anti-cancer effector lymphocytes consisted of rIL-2 activated cells (four days activation with rIL-26,000 IU/ml) or using donor lymphocytes activated in vitro against irradiated tumor cells or host alloantigens in one way mixed lymphocyte tumor reaction or using donor lymphocytes pre-cultured with irradiated parental or other family member expressing either one of the patient's haplotypes in one way mixed lymphocyte cultures (in order to induce effector cells against inherited paternal or maternal haplotypes, to maximize anti-host alloreactivity to be used as adoptive allogeneic cell therapy (alloCT). In order to maximize anti-cancer effects, patients can be immunosuppressed with Fludarabine 25 mg/m^2×5 days. […] Following cell infusion, patients receive subcutaneously rIL-2 6×10^6 IU/m^2 in an attempt to continue to activate in vivo donor anti-tumor reactive lymphocytes. Two weeks post cell therapy, patient may receive injections of alpha interferon 3×10^6 IU every other day subcutaneously as anti-proliferative and mostly as anti-angiogenic effects to minimize or jeopardize tumor cell growth from residual tumor cells escaping alloCT.
The alloCT course was done according to the scheme described.
Both cycles of alloCT were followed with SC injections of r-IL2 6×10^6 IU for five days.

[9] = tested on: Lewis rat skin xenografts
Procedure: The basic protocol for conditioning prior to transplantation included sTLI (1-6 daily exposures of 200 cGy) to a total dose of up to 1,200 cGy, followed by intravenous inoculation with 3×10^7 BMC on the day after the last TLI dose. […] One day after BMC infusion, experimental mice were injected with 200 mg/kg Cy (Taro, Israel) intraperitoneally. Cy was freshly dissolved in sterile phosphate-buffered saline prior to injection. […] A second infusion of donor, after Cy, was also administered in some of the mice.
Skin grafting was carried out 20 days after completion of the tolerogenic treatment. A full-thickness skin graft measuring 1 cm×1 cm was adjusted to the graft bed by 4 Thomas surgery clips (Thomas Scientific, USA). The panniculus camosus was kept intact in the graft bed. The graft was considered to be accepted when hair of donor color grew on the soft flexible underlying skin, and rejected when donor epithelium was lost.
Two groups of mice were administered sTLI of 6 fractions of 200 cGy/day. After sTLI conditioning, both groups were administered 30×10^6 non-T cell depleted Lewis rat BMC intravenously. The first group was given a single dose of 200 mg/kg Cy the next day. Another 3×10^7 non T cell depleted rat BMC were administered the following day. In the second group, a dose of 60 mg/kg Cy was given daily for 3 days in contrast to the single 200 mg/kg dose given the first group. The first dose of Cy was given 10 hours after the first rat BMC inoculation, the second dose at 24 hours and the third dose at 48 hours (see below). After administration of three doses of 60 mg/kg Cy, a second inoculation of 3×10^7 non T cell depleted rat BMC were administered.

[10] = ASTA-Z treated PBMC cultured with IL-2 6,000 IU/ml, target:effector 1:100
[11] = human PBMC, ASTA-Z then rIL-2 6,000 IU/ml 4 days
[12] = sTLI, rat BMC, single 200 mg/kg Cy, second rat BMC

mafosphamide [ASTA-Z]
capacity of the bone marrow cells to induce GVHD [1]: reduced
generation of killer cells capable of killing P815 target cells [2]: did not decrease
generation of killer cells capable of killing YAC-1 target cells [3]: did not decrease
in vitro proliferative responses to the T cell mitogens ConA and PHA ([4]; 100 μg/ml, 30 minutes, 37°C): elimination
Cell Proliferation, Con-A ([4]; BALB/c spleen cells, ASTA-Z 100 μg/ml 30 min 37°C and/or IL-2 1,000 IU/ml, ConA 10 μg/ml): 2,980 cpm
Cell Proliferation, PHA ([4]; BALB/c spleen cells, ASTA-Z 100 μg/ml 30 min 37°C and/or IL-2 1,000 IU/ml, PHA 1 μg/ml): 5,118 cpm
Cell Proliferation, No Mitogens ([4]; BALB/c spleen cells, ASTA-Z 100 μg/ml 30 min 37°C and/or IL-2 1,000 IU/ml, no mitogen): 219 cpm
effect of added IL-2 on inhibition of responsiveness to the mitogens ([4]; IL-2 1,000 IU/ml added to cultures of spleen cells and ASTA-Z): did not overcome inhibition
Lysis of K562 target cells (percentage of 51Cr released) [5, 10]: 52% and 48%
generation of killer cells capable of killing K562 target cells [5, 11]: did not decrease
Lysis of Daudi target cells (percentage of 51Cr released) [6, 10]: 42% and 71%
generation of killer cells capable of killing Daudi target cells [6, 11]: did not decrease
capacity of the spleen cells to induce GVHD [7]: reduced

MabThera: monoclonal anti-CD20 antibodies
clinical outcome [8]: no evidence of disease

O=P1(N(CCCl)CCCl)NCCCO1 (centres unmarked) [Cy, cyclophosphamide]
recipients that developed lethal GVHD ([9]; Cy 3 × 60 mg/kg, of the 15 recipients that accepted xenografts): 5
Skin Graft Acceptance ([9]; sTLI, rat BMC, Cy 60 mg/kg at 10 h, 24 h, 48 h, second rat BMC): 15 of 20 and 15/20
Lethal GVHD [9, 12]: in most of the recipients
Skin Graft Acceptance [9, 12]: 0/6
Skin Xenograft Survival Time [9, 12]: <20 days

B1: Panorex: anti-epithelial cell antibodies, anti-17A (antibody, chains of the INN, looked up, V domains shown)
VH: QVQLQQSGAELVRPGTSVKVSCKASGYAFTNYLIEWVKQRPGQGLEWIGVINPGSGGTNYNEKFKGKATLTADKSSSTAYMQLSSLTSDDSAVYFCARDGPWFAYWGQGTLVTVSA
VL: NIVMTQSPKSMSMSVGERVTLTCKASENVVTYVSWYQQKPEQSPKLLIYGASNRYTGVPDRFTGSGSATDFTLTISSVQAEDLADYHCGQGYSYPYTFGGGTKLEIK
clinical outcome [8]: no evidence of disease
